Data on 17 molecules can be found in publication PMC10780633, “Novel Multi-Target Agents Based on the Privileged Structure of 4-Hydroxy-2-quinolinone” (Molecules, 2023).

A short description of assay [1]: Interaction with the stable free radical DPPH (reducing activity). The following applies: 100 μM. How it is done:
(§1) In this work, the carboxamides 3a–3u, the quinolinone–cinnamic or benzoic acid hybrids 11a–11g and the reverse amides 16a–16c were tested for their antioxidant activity via five in vitro techniques; (i) the interaction with the stable free radical 2,2-diphenyl-1-picrylhydrazyl (DPPH); (ii) the inhibition of lipid peroxidation; (iii) the hydroxyl radical scavenging ability; (iv) the 2,2-azino-bis(3-ethylbenzothiazoline-6-sulfonic acid (ABTS) radical cation (ABTS·^+) reduction; and (v) the superoxide anion radical scavenging ability.

A short description of assay [2]: Inhibition of lipid peroxidation of linoleic acid induced by AAPH radical. The following applies: 100 μM. The procedure: as §1
The assay for the determination of the inhibition of linoleic acid peroxidation induced by the free radical initiator […](2-amidinopropane) dihydrochloride (AAPH) was performed according to the methods of Hadjipavlou-Litina et al., which we have also used in our previous works.

Assay [3] in a line: ABTS radical cation decolorization assay. The following applies: 0.1 mM. The procedure: as §1
The experimental technique used in this section was performed according to the methods of Pontiki et al.. The results were compared to the appropriate standard inhibitor Trolox.

In the next assay the target is T1, soybean lipoxygenase (Glycine max, UniProt P08170).
T1 construct: purchased Sigma Chemical, Co. (St. Louis, MO, USA)
T1 sequence (P08170 1-839): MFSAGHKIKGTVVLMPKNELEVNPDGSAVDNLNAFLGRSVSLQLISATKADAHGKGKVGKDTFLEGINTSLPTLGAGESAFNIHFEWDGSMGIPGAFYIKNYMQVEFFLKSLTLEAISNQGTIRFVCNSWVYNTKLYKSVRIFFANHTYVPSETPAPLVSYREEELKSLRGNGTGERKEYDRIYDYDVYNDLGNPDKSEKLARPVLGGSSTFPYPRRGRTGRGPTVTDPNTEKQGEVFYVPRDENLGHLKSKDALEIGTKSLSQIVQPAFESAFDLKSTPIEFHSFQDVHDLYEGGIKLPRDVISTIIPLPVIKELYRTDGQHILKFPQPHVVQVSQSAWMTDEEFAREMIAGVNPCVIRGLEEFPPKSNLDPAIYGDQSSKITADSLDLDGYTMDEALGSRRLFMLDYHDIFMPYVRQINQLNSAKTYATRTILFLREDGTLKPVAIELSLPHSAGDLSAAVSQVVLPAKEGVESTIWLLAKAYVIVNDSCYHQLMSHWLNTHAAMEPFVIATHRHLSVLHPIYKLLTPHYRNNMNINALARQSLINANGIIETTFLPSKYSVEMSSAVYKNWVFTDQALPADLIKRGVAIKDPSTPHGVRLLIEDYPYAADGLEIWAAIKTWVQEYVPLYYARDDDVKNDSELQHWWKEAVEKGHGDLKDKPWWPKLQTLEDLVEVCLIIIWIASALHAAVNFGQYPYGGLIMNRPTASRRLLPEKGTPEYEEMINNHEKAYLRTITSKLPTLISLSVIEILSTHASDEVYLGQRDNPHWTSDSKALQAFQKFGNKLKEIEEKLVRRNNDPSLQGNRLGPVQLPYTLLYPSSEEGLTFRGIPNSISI
The experiment in a line: Soybean LOX inhibition in vitro (UV absorbance-based assay). The format is biochemical. How it is done: For this study, the UV absorbance-based soybean LOX assay was used.
The assay for the determination of the inhibition of soybean LOX was performed according to the methods of Hadjipavlou-Litina et al., which we have also used in our previous works.

Assay [4] can be described thus: Non-enzymatic superoxide anion radical scavenging assay (PMS). The conditions noted are these: 0.1 mM. How it is done: as §1
The experimental technique used for this assay was performed according to our previous works. Caffeic acid was used as an appropriate standard.

The nature of assay [5]: Competition with DMSO for hydroxyl radicals. The conditions noted are these: 0.1 mM. The procedure: as §1
The assay was performed according to the methods of Pontiki et al. Trolox was used as a reference compound [78].

Several values for one entry are separate records, joined by “and”; a condition that tells them apart may be missing. Equal entries are not always repeated.

“4-hydroxy-N-(2-hydroxy-1-phenylethyl)-1-methyl-2-oxo-1,2-dihydroquinoline-3-carboxamide [Compound 3p]”: the “Interaction with the Free Radical DPPH (%)” value was found to be 19.5% in assay [1] (20 min) and 6.6% in assay [1] (60 min). Also, the “Inhibition of Lipid Peroxidation of Linoleic Acid Induced by AAPH Radical (%)” value (from here on “Inhibition of Lipid Peroxidation … (%)”) in assay [2] was 100%. Further, the “ABTS% (ABTS radical cation decolorization)” value (“ABTS%” for short) in assay [3] was “no”. For the same molecule, the “Inhibition of Soybean Lipoxygenase % at 0.1 mM” value at soybean lipoxygenase (0.1 mM) is reported as “no”. The “PMS% (superoxide anion radical scavenging)” value (“PMS%” below) in assay [4] is “no”.

For “4-hydroxy-N-(2-hydroxy-1-phenylethyl)-2-oxo-1-phenyl-1,2-dihydroquinoline-3-carboxamide [Compound 3q]”, the “Interaction with the Free Radical DPPH (%)” value came to 23.8% in assay [1] (20 min) and 10.0% in assay [1] (60 min). The “Inhibition of Lipid Peroxidation … (%)” value in assay [2] is 100%. Further, the “ABTS%” value in assay [3] is listed as “no”. Moreover, on soybean lipoxygenase (0.1 mM), the “Inhibition of Soybean Lipoxygenase % at 0.1 mM” value amounted to 24.0%. Further, the “PMS%” value in assay [4] is given as “no”.

Turning to `O=C(O)/C=C/c1ccc(O)c(O)c1` [Caffeic acid, reference compound], in assay [4], the “PMS%” value stood at 23%.

On to `Cn1c(=O)c(C(=O)Nc2ccc(O)cc2)c(O)c2ccccc21` [Compound 3f, 4-hydroxy-N-(4-hydroxyphenyl)-1-methyl-2-oxo-1,2-dihydroquinoline-3-carboxamide], for which the “Interaction with the Free Radical DPPH (%)” value was determined as 39.3% in assay [1] (20 min) and 48.6% in assay [1] (60 min). In addition, the “Inhibition of Lipid Peroxidation … (%)” value in assay [2] came out at 100%. Also, the “ABTS%” value in assay [3] is listed as 77.3%. Moreover, the “OH% (hydroxyl radical scavenging)” value in assay [5] came out at 67.7%. The molecule further yielded an IC50 on soybean lipoxygenase of 49 µM.

For `O=C(Nc1ccncc1)c1c(O)c2ccccc2n(-c2ccccc2)c1=O` [Compound 3u, 4-hydroxy-2-oxo-1-phenyl-N-(pyridin-4-yl)-1,2-dihydroquinoline-3-carboxamide], the “Interaction with the Free Radical DPPH (%)” value in assay [1] (20 min) is listed as 19.3%; in assay [1] (60 min), 8.3%. In addition, the “Inhibition of Lipid Peroxidation … (%)” value in assay [2] is given as 16.4%. Further, the “ABTS%” value in assay [3] is “no”. The “Inhibition of Soybean Lipoxygenase % at 0.1 mM” value at soybean lipoxygenase (0.1 mM) is “inactive and no”. Besides, the “PMS%” value in assay [4] is listed as “no”.

On to `CCn1c(=O)c(C(=O)NCCNC(=O)c2ccc(OC(C)=O)cc2)c(O)c2ccccc21` [Compound 11a, 4-((2-(1-ethyl-4-hydroxy-2-oxo-1,2-dihydroquinoline-3-carboxamido)ethyl)carbamoyl)phenyl acetate], for which the “Interaction with the Free Radical DPPH (%)” value in assay [1] (20 min) is reported as 1.0%; in assay [1] (60 min), 4.4%. Besides, the “Inhibition of Lipid Peroxidation … (%)” value in assay [2] is listed as 89.0%. In addition, at soybean lipoxygenase, the midpoint of inhibition, the IC50, lay at 61 µM.

For `CCn1c(=O)c(C(=O)NCCNC(=O)c2cc(OC)c(OC(C)=O)c(OC)c2)c(O)c2ccccc21` [Compound 11b, 4-((2-(1-ethyl-4-hydroxy-2-oxo-1,2-dihydroquinoline-3-carboxamido)ethyl)carbamoyl)-2,6-dimethoxyphenyl acetate], the “Interaction with the Free Radical DPPH (%)” value in assay [1] (20 min) is listed as 3.0%; in assay [1] (60 min), “no”. In assay [2], the “Inhibition of Lipid Peroxidation … (%)” value is 93.8%. Also, the IC50 against soybean lipoxygenase stood at 70 µM.

As to `CCn1c(=O)c(C(=O)NCCNC(=O)c2ccccc2)c(O)c2ccccc21` [Compound 11c, N-(2-benzamidoethyl)-1-ethyl-4-hydroxy-2-oxo-1,2-dihydroquinoline-3-carboxamide], the “Interaction with the Free Radical DPPH (%)” value in assay [1] (20 min) and in assay [1] (60 min) was 2.0% throughout. Further, the “Inhibition of Lipid Peroxidation … (%)” value in assay [2] turned out to be 91.0%. The midpoint of inhibition against soybean lipoxygenase, the IC50, lay at 57.5 µM.

Consider `CCn1c(=O)c(C(=O)NCCNC(=O)/C=C/c2ccc(OC(C)=O)cc2)c(O)c2ccccc21` [Compound 11d, (E)-4-(3-((2-(1-ethyl-4-hydroxy-2-oxo-1,2-dihydroquinoline-3-carboxamido)ethyl)amino)-3-oxoprop-1-en-1-yl)phenyl acetate], for which the figures for the “Interaction with the Free Radical DPPH (%)” value in assay [1] (20 min) and in assay [1] (60 min) were 3.0% and 2.0%, respectively. The “Inhibition of Lipid Peroxidation … (%)” value in assay [2] is reported as 94.0%. Moreover, the inhibition at 100 µM against soybean lipoxygenase (0.1 mM) was 5%.

On to `CCn1c(=O)c(C(=O)NCCNC(=O)/C=C/c2ccc(OC(C)=O)c(OC)c2)c(O)c2ccccc21` [Compound 11e, (E)-4-(3-((2-(1-ethyl-4-hydroxy-2-oxo-1,2-dihydroquinoline-3-carboxamido)ethyl)amino)-3-oxoprop-1-en-1-yl)-2-methoxyphenyl acetate], for which the entries for the “Interaction with the Free Radical DPPH (%)” value in assay [1] (20 min) and in assay [1] (60 min) were 3.0% and 5.0%, respectively. The “Inhibition of Lipid Peroxidation … (%)” value in assay [2] amounted to 97.0%. The IC50 at soybean lipoxygenase is 52 µM and 52.5 µM.

For the molecule `CCn1c(=O)c(C(=O)NCCNC(=O)/C=C/c2ccc(OC)cc2)c(O)c2ccccc21` [Compound 11f, (E)-1-ethyl-4-hydroxy-N-(2-(3-(4-methoxyphenyl)acrylamido)ethyl)-2-oxo-1,2-dihydroquinoline-3-carboxamide], the “Interaction with the Free Radical DPPH (%)” value in assay [1] (20 min) is 2.0%; in assay [1] (60 min), 4.0%. For the same molecule, the “Inhibition of Lipid Peroxidation … (%)” value in assay [2] was found to be 93.0%. On soybean lipoxygenase, the IC50 worked out at 70 µM.

With `CCn1c(=O)c(C(=O)NCCNC(=O)/C=C/c2ccccc2)c(O)c2ccccc21` [Compound 11g, (E)-N-(2-cinnamamidoethyl)-1-ethyl-4-hydroxy-2-oxo-1,2-dihydroquinoline-3-carboxamide], the “Interaction with the Free Radical DPPH (%)” value in assay [1] (20 min) was “no”; in assay [1] (60 min) it was 2.0%. In assay [2], the “Inhibition of Lipid Peroxidation … (%)” value turned out to be 97.0%. This molecule also returned an IC50 at soybean lipoxygenase of 85.5 µM.

Regarding `CCCC(=O)Nc1c(O)c2ccccc2n(C)c1=O` [Compound 16a, N-(4-hydroxy-1-methyl-2-oxo-1,2-dihydroquinolin-3-yl)butyramide], the “Interaction with the Free Radical DPPH (%)” value worked out at 24.0% in assay [1] (20 min) and 31.0% in assay [1] (60 min). For the same molecule, the “Inhibition of Lipid Peroxidation … (%)” value in assay [2] was determined as 83.0%. For the same molecule, at soybean lipoxygenase, 81 µM corresponded to half-maximal inhibition (IC50).

As to `Cc1ccc(C(=O)Nc2c(O)c3ccccc3n(C)c2=O)cc1` [Compound 16b, N-(4-hydroxy-1-methyl-2-oxo-1,2-dihydroquinolin-3-yl)-4-methylbenzamide], the “Interaction with the Free Radical DPPH (%)” value in assay [1] (20 min) stood at 27.0%; in assay [1] (60 min), 32.0%. Besides, in assay [2], the “Inhibition of Lipid Peroxidation … (%)” value stood at 88.0%. This molecule also registered an IC50 against soybean lipoxygenase of 100 µM.

As for `Cn1c(=O)c(NC(=O)c2ccccc2O)c(O)c2ccccc21` [Compound 16c, 2-hydroxy-N-(4-hydroxy-1-methyl-2-oxo-1,2-dihydroquinolin-3-yl)benzamide], the figures for the “Interaction with the Free Radical DPPH (%)” value in assay [1] (20 min) and in assay [1] (60 min) were 25.0% and 28.0%, respectively. The “Inhibition of Lipid Peroxidation … (%)” value in assay [2] was 88.0%. Further, half-maximal inhibition against soybean lipoxygenase (IC50) required 82.5 µM.

Regarding `C[C@H](Cc1ccc(O)c(O)c1)[C@@H](C)Cc1ccc(O)c(O)c1` [NDGA, nordihydroguaiaretic acid, reference compound], the “Interaction with the Free Radical DPPH (%)” value in assay [1] (20 min) is 83.0%; in assay [1] (60 min), 94.0%.

Take `Cc1c(C)c2c(c(C)c1O)CCC(C)(C(=O)O)O2` (stereo not shown) [Trolox, reference compound]: in assay [2], the “Inhibition of Lipid Peroxidation … (%)” value is listed as 88.0%. Further, the “ABTS%” value in assay [3] amounted to 93.0%. Besides, the “OH% (hydroxyl radical scavenging)” value in assay [5] was found to be 82.0%.
